Measured values from ChEMBL document CHEMBL2401646 (Bioorg Med Chem Lett, 2013).
One block for each molecule: values may come before it. Activity calls are given as the source filed them. No cut-off for these calls is given here.

Experiments:
[1] = system: MKN-45; test: Antiproliferative activity against human MKN45 cells after 3 days by CellTiter-Glo assay; assay type: functional, cell-based; details: MKN-45, 72 h
[2] = Permeability of the compound at pH 7.4 by PAMPA; assay type: ADME; details: read-out: permeability
[3] = biological target: Cytochrome P450 3A4 (Homo sapiens, UniProt P08684); test: Inhibition of CP3A4 (unknown origin)
[4] = AUC (0 to last) in CD1 mouse at 20 mg/kg, po; assay type: ADME, organism-based; design: dose 20 mg/kg, route oral, time 0 - last; details: plasma
[5] = Cmax in CD1 mouse at 20 mg/kg, po; assay type: ADME, organism-based; design: dose 20 mg/kg, route oral; details: in vivo
[6] = Oral bioavailability in CD1 mouse at 20 mg/kg; assay type: ADME, organism-based; details: in vivo
[7] = species on record: Homo sapiens; test: Ratio of IC50 for cMET Y1230C mutant (unknown origin) to IC50 for wild type cMET (unknown origin)
[8] = system: KARPAS-299; test: Antitumor activity against human KARPAS299 xenograft model assessed as tumor growth inhibition at 50 mg/kg qd; assay type: functional; details: read-out: TGI
[9] = species on record: Homo sapiens; test: Ratio of IC50 for cMET Y1230H mutant (unknown origin) to IC50 for wild type cMET (unknown origin)
[10] = Half life in CD1 mouse at 2 mg/kg, iv; assay type: ADME, organism-based; design: dose 2 mg/kg, route intravenous; details: in vivo
[11] = Volume of distribution at steady state in CD1 mouse at 2 mg/kg, iv; assay type: ADME, organism-based; design: dose 2 mg/kg, route intravenous; details: in vivo, read-out: Vdss
[12] = Clearance in CD1 mouse at 2 mg/kg, iv; assay type: ADME, organism-based; design: dose 2 mg/kg, route intravenous; details: in vivo
[13] = system: Mus musculus; test: Inhibition of MET autophosphorylation at Y1349 in human MKN45 cells xenografted in mouse at 100 mg/kg, po up to 8 hrs; assay type: functional, organism-based; design: dose 100 mg/kg; details: MKN-45
[14] = species on record: Homo sapiens; details: 1 uM
Description: Inhibition of aurora kinase (unknown origin) autophosphorylation at 1 uM

[15] = biological target: Tyrosine-protein kinase ABL1 (Homo sapiens) (UniProt P00519); details: 1 uM
Description: Inhibition of Abl (unknown origin) autophosphorylation at 1 uM

[16] = system: KARPAS-299; test: Antitumor activity against human KARPAS299 xenograft model assessed as tumor growth inhibition up to 200 mg/kg qd; assay type: functional, organism-based; design: dose 200 mg/kg
[17] = biological target: Hepatocyte growth factor receptor (Homo sapiens, UniProt P08581); details: 1 uM
Description: Inhibition of cMET (unknown origin) autophosphorylation at 1 uM

[18] = biological target: Tyrosine-protein kinase ABL2 (Homo sapiens) (UniProt P42684); details: 1 uM
Description: Inhibition of ARG (unknown origin) autophosphorylation at 1 uM

[19] = system: MKN-45; test: Antitumor activity against human MKN45 cells xenografted in nu/nu CD1 mouse model assessed as tumor growth inhibition at 25 mg/kg, po qd for 14 days; assay type: functional; details: MKN-45, 336 h, read-out: TGI
[20] = system: Mus musculus; test: Toxicity in human MKN45 cells xenografted nu/nu CD1 mouse model assessed as body weigh loss at 100 mg/kg, po qd for 14 days; assay type: organism-based, MKN-45; design: dose 100 mg/kg, route oral; details: in vivo, 336 h
[21] = system: MKN-45; test: Antitumor activity against human MKN45 cells xenografted in nu/nu CD1 mouse model assessed as tumor growth inhibition at 50 mg/kg, po qd for 14 days; assay type: functional; details: MKN-45, 336 h, read-out: TGI
[22] = system: MKN-45; test: Antitumor activity against human MKN45 cells xenografted in nu/nu CD1 mouse model assessed as maximum tumor regression at 25 mg/kg, po qd for 14 days; assay type: functional
[23] = system: MKN-45; test: Antitumor activity against human MKN45 cells xenografted in nu/nu CD1 mouse model assessed as tumor growth inhibition at 200 mg/kg, po qd for 14 days; assay type: functional; details: MKN-45, 336 h, read-out: TGI
[24] = system: Mus musculus; test: Toxicity in human MKN45 cells xenografted nu/nu CD1 mouse model assessed as body weigh loss at 200 mg/kg, po qd for 14 days; assay type: organism-based, MKN-45; design: dose 200 mg/kg, route oral; details: in vivo, 336 h
[25] = system: MKN-45; test: Antitumor activity against human MKN45 cells xenografted in nu/nu CD1 mouse model assessed as tumor growth inhibition at 100 mg/kg, po qd for 14 days; assay type: functional; details: MKN-45, 336 h, read-out: TGI
[26] = system: MKN-45; test: Antitumor activity against human MKN45 cells xenografted in nu/nu CD1 mouse model assessed as maximum tumor regression at 50 mg/kg, po qd for 14 days; assay type: functional
[27] = system: MKN-45; test: Antitumor activity against human MKN45 cells xenografted in nu/nu CD1 mouse model assessed as maximum tumor regression at 100 mg/kg, po qd for 14 days; assay type: functional
[28] = system: Mus musculus; test: Toxicity in human MKN45 cells xenografted nu/nu CD1 mouse model assessed as body weigh loss at 25 mg/kg, po qd for 14 days; assay type: organism-based, MKN-45; design: dose 25 mg/kg, route oral; details: in vivo, 336 h
[29] = system: MKN-45; test: Antitumor activity against human MKN45 cells xenografted in nu/nu CD1 mouse model assessed as maximum tumor regression at 200 mg/kg, po qd for 14 days; assay type: functional
[30] = system: Mus musculus; test: Toxicity in human MKN45 cells xenografted nu/nu CD1 mouse model assessed as body weigh loss at 50 mg/kg, po qd for 14 days; assay type: organism-based, MKN-45; design: dose 50 mg/kg, route oral; details: in vivo, 336 h

IC50 [1]: 8.6 µM
SMILES: Nc1ncc2c(-c3cnn(C4CCNCC4)c3)coc2c1OCc1c(Cl)ccc(F)c1Cl

IC50 [1]: 0.51 µM
SMILES: C[C@@H](Oc1c(N)ncc2c(C3=CCN(C(=O)N(C)C)CC3)coc12)c1c(Cl)ccc(F)c1Cl

IC50 [1]: 0.48 µM
SMILES: CC(Oc1c(N)ncc2c(-c3cnn(C4CCNCC4)c3)coc12)c1c(Cl)c(F)cc(F)c1Cl (racemic)

SMILES: C[C@@H](Oc1c(N)ncc2c(C3=CCNCC3)coc12)c1c(Cl)ccc(F)c1Cl
IC50 [1]: 0.45 µM

IC50 [1]: 0.33 µM
Papp [2]: 199 ×10⁻⁶ cm/s
SMILES: CC(=O)N1CC=C(c2coc3c(O[C@H](C)c4c(Cl)ccc(F)c4Cl)c(N)ncc23)CC1

IC50 [1]: 0.57 µM
IC50 [3]: > 20 µM
SMILES: CC(Oc1c(N)ncc2c(-c3cnn(C4CCNCC4)c3)coc12)c1c(Cl)ccc(F)c1Cl (racemic)

IC50 [1]: 4.6 µM
SMILES: C[C@@H](Oc1c(N)ncc2c(-c3ccccn3)coc12)c1c(Cl)ccc(F)c1Cl

IC50 [1]: 4.5 µM
SMILES: C[C@H](Oc1c(N)ncc2c(-c3cnn(C4CCNCC4)c3)coc12)c1c(Cl)ccc(F)c1Cl

IC50 [1]: 3.6 µM
SMILES: CC(Oc1c(N)ncc2c(-c3cnn(C4CCNCC4)c3)coc12)c1c(Cl)cc(Cl)cc1Cl (racemic)

IC50 [1]: 0.67 µM
Papp [2]: 318 ×10⁻⁶ cm/s
SMILES: CC(=O)N1CCC(n2cc(-c3coc4c(O[C@H](C)c5c(Cl)ccc(F)c5Cl)c(N)ncc34)cn2)CC1

AUC(0-t) [4]: 509 ng·h/mL
Cmax [5]: 150 nM
bioavailability [6]: 35%
SMILES: C[C@@H](Oc1c(N)ncc2c(-c3cnn(C4CCNCC4)c3)coc12)c1c(Cl)ccc(F)c1Cl.Cl.Cl.Cl.Cl

IC50 [1]: 0.9 µM
SMILES: C[C@@H](Oc1c(N)ncc2c(-c3ccncc3)coc12)c1c(Cl)ccc(F)c1Cl

IC50 [1]: 3.3 µM
SMILES: C[C@@H](Oc1c(N)ncc2c(-c3cn[nH]c3)coc12)c1c(Cl)ccc(F)c1Cl

IC50 [1]: 0.85 µM
SMILES: COC(=O)N1CC=C(c2coc3c(O[C@H](C)c4c(Cl)ccc(F)c4Cl)c(N)ncc23)CC1

IC50 [1]: 11 µM
SMILES: C[C@@H](Oc1c(N)ncc2c(-c3ccccc3)coc12)c1c(Cl)ccc(F)c1Cl

IC50 [1]: 1.3 µM
SMILES: CC(Oc1c(N)ncc2c(-c3cnn(C4CCNCC4)c3)coc12)c1c(Cl)ccc(Cl)c1Cl (racemic)

Ratio IC50 [7]: > 600
Ratio IC50 [9]: 8
SMILES: C[C@@H](Oc1cc(-c2cnn(C3CCNCC3)c2)cnc1N)c1c(Cl)ccc(F)c1Cl [CRIZOTINIB]
inhibition in vivo at 50 mg/kg [8]: 96%

IC50 [1]: 2 µM
SMILES: CC(Oc1c(N)ncc2c(-c3cnn(C4CCNCC4)c3)coc12)c1c(Cl)cccc1Cl (racemic)

IC50 [1]: 0.36 µM
IC50 [3]: 1.6 µM
SMILES: C#CCC(Oc1c(N)ncc2c(-c3cnn(C4CCNCC4)c3)coc12)c1c(Cl)ccc(F)c1Cl (racemic)

IC50 [1]: 3.1 µM
SMILES: C[C@@H](Oc1c(N)ncc2c(C3CCNCC3)coc12)c1c(Cl)ccc(F)c1Cl

IC50 [1]: 0.19 µM
SMILES: CNC(=O)N1CC=C(c2coc3c(O[C@H](C)c4c(Cl)ccc(F)c4Cl)c(N)ncc23)CC1

IC50 [1]: 0.51 µM
SMILES: CC(Oc1c(N)ncc2c(-c3cnn(C4CCNCC4)c3)coc12)c1c(Br)ccc(F)c1Cl (racemic)

IC50 [1]: 2.7 µM
SMILES: CCCC(Oc1c(N)ncc2c(-c3cnn(C4CCNCC4)c3)coc12)c1c(Cl)ccc(F)c1Cl (racemic)

IC50 [1]: 0.3 µM
half-life [10]: 36 min
Vd [11]: 12 L/kg
clearance [12]: 227 mL/min/kg
SMILES: C[C@@H](Oc1c(N)ncc2c(-c3cnn(C4CCNCC4)c3)coc12)c1c(Cl)ccc(F)c1Cl

IC50 [1]: 1.6 µM
SMILES: COc1ccc(Cl)c([C@@H](C)Oc2c(N)ncc3c(-c4cnn(C5CCNCC5)c4)coc23)c1Cl

IC50 [1]: 6.4 µM
SMILES: CC(Oc1c(N)ncc2c(-c3cnn(C4CCNCC4)c3)coc12)c1cc(F)ccc1Cl (racemic)

Ratio IC50 [7]: > 600
Ratio IC50 [9]: 8
SMILES: OCCn1cc(-c2cnc3nnn(Cc4ccc5ncccc5c4)c3n2)cn1

IC50 [1]: 3.5 µM
SMILES: CNC(=O)c1coc2c(O[C@H](C)c3c(Cl)ccc(F)c3Cl)c(N)ncc12

Ratio IC50 [7]: 3
inhibition [14]: > 50%
inhibition [15]: > 50%
inhibition [17]: > 50%
inhibition [18]: > 50%
SMILES: C[C@@H](Oc1c(N)ncc2c(C3=CCN(C(N)=O)CC3)coc12)c1c(Cl)ccc(F)c1Cl
inhibition [13]: Active
TGI [16]: inactive

IC50 [1]: 2.7 µM
SMILES: C[C@@H](Oc1c(N)ncc2c(-c3cccnc3)coc12)c1c(Cl)ccc(F)c1Cl

IC50 [1]: 5.1 µM
SMILES: CC(Oc1c(N)ncc2c(-c3cnn(C4CCNCC4)c3)coc12)c1cccc(F)c1Cl (racemic)

AUC(0-t) [4]: 5420 ng·h/mL
Cmax [5]: 4800 nM
bioavailability [6]: 83%
SMILES: CS(=O)(=O)O.C[C@@H](Oc1c(N)ncc2c(C3=CCN(C(N)=O)CC3)coc12)c1c(Cl)ccc(F)c1Cl
inhibition in vivo at 25 mg/kg [19]: 13%
Activity [20]: 3%
inhibition in vivo at 50 mg/kg [21]: 51%
Activity [22]: 0%
inhibition in vivo at 200 mg/kg [23]: 100%
Activity [24]: 3%
inhibition in vivo at 100 mg/kg [25]: 100%
Activity [26]: 0%
Activity [27]: 27%
Activity [28]: 6%
Activity [29]: 49%
Activity [30]: 2%

IC50 [1]: 3.6 µM
SMILES: CCC(Oc1c(N)ncc2c(-c3cnn(C4CCNCC4)c3)coc12)c1c(Cl)ccc(F)c1Cl (racemic)
